# Results from patent publication US20020115642A1, “Beta-lactam antibiotics” (priority 2000, published 2002).
# Like-named read-outs stand apart in the source and are kept apart here.
# How the values were obtained:
# S. epidermidis = assay: Susceptibility testing (MIC, modified NCCLS method); assay type: cell-based, Staphylococcus epidermidis; settings: Staphylococcus epidermidis, S. epidermidis (5); read-out: GM* MIC (geometric mean)
# Method: (§1) The NCCLS (National Committee for Clinical Laboratory Standards) method to determine MIC's of antimicrobial compounds was modified for high-throughput screening. All stocks of tested compounds were prepared in either water or in dimethylsulfoxide (DMSO), depending on the solubility. […] Briefly 20 2-fold serial dilutions of testing compounds from the highest concentration were made in a 384-well microtiter plate. Each well was inoculated with testing bacteria in broth to a final concentration of approximately 1-1.5×10^6 cells/ml. Bacterial growth was determined by the increase of optical density at 600 nm using a microplate reader (Tecan SpectraFluor Plus).
# Staphylococcus aureus = assay: as above; assay type: cell-based
# Method: as §1
# E. faecalis = assay: as above; assay type: cell-based, Enterococcus faecalis
# Method: as §1
# E. coli/TEM-1 = assay: as above; assay type: cell-based, Escherichia coli; settings: E. coli/Tem-1
# Method: as §1
# E. coli N [1] = assay: as above; assay type: cell-based, Escherichia coli; settings: E. coli (N)
# Method: as §1
# E. cloacae = assay: as above; assay type: cell-based, Enterobacter cloacae; settings: E. cloacae ATCC 23355
# Method: as §1
# P. aeruginosa = assay: as above; assay type: cell-based, Pseudomonas aeruginosa
# Method: as §1
# K. pneumoniae = assay: as above; assay type: cell-based, Klebsiella pneumoniae
# Method: as §1
# E. aerogenes = assay: as above; assay type: cell-based, Enterobacter aerogenes; settings: E. aerogenes ATCC 35028
# Method: as §1
# E. coli C(Tem4O-15) = assay: Inhibition of bacterial growth (IC50, OD600); assay type: cell-based; settings: for IC50: Cell C (Tem40-15)
# Method: (§2) Compounds of the invention were tested for their ability to inhibit the growth of β-lactam sensitive and resistant bacteria by contacting samples of such cells with various dilutions of the compositions, incubating the cells at 37° C. in the presence of these compositions and then measuring the number of viable cells present in each sample.
# (§3) Two compounds of the invention were tested, Compound (9) and Compound (1l). Incubation of bacterial cells was performed for two time periods, 10 hours and 20 hours. Four E. coli strains were used for the test. These strains were all derived from the strain NovaBlue (NovaGen Inc., Madison, Wis.). E. coli N is a normal, β-lactam sensitive strain. E coli R(Tem1) is a β-lactam resistant strain with a β-lactamase gene on a plasmid. E. coli C(Tem4O-15) is a β-lactam resistant strain with a β-lactam inhibitor resistant β-lactamase gene, and E. coli C(Tem3 1-27) is β-lactam resistant strain with an alternative β-lactam inhibitor resistant β-lactamase gene.
# (§4) The various E. coli strains were each treated with dilutions of the compounds of the invention. […] The number of viable cells at each time point was determined by measuring the OD600 of each cell sample.
# (§5) After measuring the number of viable cells present, the IC50 for each sample was determined. […] In addition, both compounds were effective at inhibiting the growth of both antibiotic sensitive and resistant bacterial cells.
# E coli R(Tem1) = assay: Inhibition of bacterial growth (IC50, OD600); assay type: cell-based; settings: for IC50 ratio N/R: N versus R (Tem1); for IC50: Cell R (Tem1)
# Method: as §2, §3, §4, §5
# E. coli N [2] = assay: Inhibition of bacterial growth (IC50, OD600); assay type: cell-based; settings: Cell N
# Method: as §2, §3, §4, §5
# E. coli C(Tem3 1-27) = assay: Inhibition of bacterial growth (IC50, OD600); assay type: cell-based; settings: for IC50: Cell C (Tem31-27)
# Method: as §2, §3, §4, §5
# [3] = read-out: IC50 10 hours, 10 hours
# [4] = read-out: IC50 20 hours, 20 hours
molecule,measurement,setting,value
"Cc1onc(-c2ccccc2)c1C(=O)N[C@@H]1C(=O)N2[C@@H]1SC(C)(C)[C@@H]2C(=O)O [Oxacillin, reference compound]",MIC,S. epidermidis,> 7.87 µg/mL
same,MIC,"Staphylococcus aureus; Staphylococcus aureus, ATCC11632, ATCC 11632, methicillin-sensitive, β-lactamase Neg./Pos., read-out: MIC",0.25 µg/mL
same,MIC,"Staphylococcus aureus; Staphylococcus aureus, ATCC13301, ATCC 13301, methicillin-sensitive, β-lactamase Positive, read-out: MIC",0.25 µg/mL
same,MIC,"Staphylococcus aureus; Staphylococcus aureus, ATCC14154, ATCC 14154, methicillin-sensitive, β-lactamase Positive, read-out: MIC",0.5 µg/mL
same,MIC,"Staphylococcus aureus; Staphylococcus aureus, ATCC33591, ATCC 33591, methicillin-resistant, β-lactamase Positive, read-out: MIC",8 µg/mL
same,MIC,"Staphylococcus aureus; Staphylococcus aureus, ATCC33592, ATCC 33592, methicillin-sensitive, β-lactamase Positive, read-out: MIC",2 µg/mL
same,MIC,"Staphylococcus aureus; Staphylococcus aureus, ATCC33593, ATCC 33593, methicillin-resistant, β-lactamase Positive, read-out: MIC",8 µg/mL
same,MIC,"Staphylococcus aureus; Staphylococcus aureus, ATCC33594, ATCC 33594, methicillin-sensitive, β-lactamase Positive, read-out: MIC",0.25 µg/mL
same,MIC,"Staphylococcus aureus; Staphylococcus aureus, ATCC43300, ATCC 43300, methicillin-sensitive, β-lactamase Neg./Pos., read-out: MIC",2 µg/mL
same,MIC,"Staphylococcus aureus; Staphylococcus aureus, ATCC700260, ATCC 700260, methicillin-sensitive, β-lactamase Positive, read-out: MIC",0.5 µg/mL
same,MIC,"Staphylococcus aureus; Staphylococcus aureus, ATCC700698, ATCC 700698, methicillin-resistant, β-lactamase Negative, read-out: MIC",> 32 µg/mL
same,MIC,"Staphylococcus aureus; Staphylococcus aureus, ATCC700699, ATCC 700699, methicillin-resistant, β-lactamase Negative, read-out: MIC",> 32 µg/mL
same,MIC,"Staphylococcus aureus; Staphylococcus aureus, ATCC700787, ATCC 700787, methicillin-resistant, β-lactamase Positive, read-out: MIC",> 32 µg/mL
same,MIC,"Staphylococcus aureus; Staphylococcus aureus, ATCC700788, ATCC 700788, methicillin-resistant, β-lactamase Positive, read-out: MIC",> 32 µg/mL
same,MIC,"Staphylococcus aureus; Staphylococcus aureus, ATCC700789, ATCC 700789, methicillin-resistant, β-lactamase Positive, read-out: MIC",32 µg/mL
same,MIC,"Staphylococcus aureus; Staphylococcus aureus, MRSA, MRSA tested (7), read-out: Geometric mean of MIC",> 21.5 µg/mL
same,MIC,"Staphylococcus aureus; Staphylococcus aureus, MSSA, MSSA tested (7), read-out: Geometric mean of MIC",0.55 µg/mL
same,MIC,"Staphylococcus aureus; Staphylococcus aureus, S. aureus (14), read-out: Geometric mean of MIC",> 3.45 µg/mL
same,MIC,"Staphylococcus aureus; Staphylococcus aureus, S. aureus β-lactamase negative (2), read-out: Geometric mean of MIC",> 32 µg/mL
same,MIC,"Staphylococcus aureus; Staphylococcus aureus, S. aureus β-lactamase positive (12), read-out: Geometric mean of MIC",2.34 µg/mL
same,MIC range,E. faecalis; E. faecalis (7),>11 µg/mL
same,MIC,"E. faecalis; Enterococcus faecalis, E. faecalis (7), read-out: GM* MIC (geometric mean)",> 11 µg/mL
"O=C(Cc1cnc[nH]1)NC1C(=O)N2C(C(=O)O)=C(COc3cc(Cl)ccc3Oc3ccc(Cl)cc3Cl)CS[C@H]12 (some centres unmarked) [Compound 31, 3-(2-(2,4-Dichlorophenoxy)-5-chlorophenoxy)methyl-7-[2-(3H-imidazol-4-yl)]-acetamido-3-cephem-4-carboxylic acid]",MIC,E. coli/TEM-1,0.063 µg/mL
same,MIC,E. coli N [1],0.25 µg/mL
same,MIC,E. cloacae,16 µg/mL
same,MIC,P. aeruginosa; P. aeruginosa ATCC 21726,>32 µg/mL
same,MIC,P. aeruginosa; P. aeruginosa ATCC 29872,>32 µg/mL
same,MIC,Staphylococcus aureus; S. aureus ATCC 11632,16 µg/mL
same,MIC,Staphylococcus aureus; S. aureus ATCC 33591,16 µg/mL
same,MIC,Staphylococcus aureus; S. aureus ATCC 33594,0.063 µg/mL
same,MIC,Staphylococcus aureus; S. aureus ATCC 700260,32 µg/mL
same,MIC,Staphylococcus aureus; S. aureus ATCC 700699,32 µg/mL
same,MIC,E. faecalis; E. faecalis ATCC 49757,32 µg/mL
same,MIC,E. faecalis; E. faecalis ATCC 700802,>32 µg/mL
same,MIC,K. pneumoniae; K. pneumoniae ATCC 51503,32 µg/mL
same,MIC,K. pneumoniae; K. pneumoniae ATCC 700721,0.5 µg/mL
same,MIC,E. aerogenes,16 µg/mL
"3-(2-(2,4-Dichlorophenoxy)-5-chlorophenoxy)methyl-7-(2-thienylacetamido)-1-oxo-3-cephem-4-carboxylate [Compound 11]",IC50 ratio (C/R or N/C),"E. coli C(Tem4O-15); 10 hours, line of C (Tem40-15)",N/C = 20x
same,IC50 ratio (given C/R or N/R),"E. coli C(Tem4O-15); 20 hours, line of C (Tem40-15)",N/R = 6.5x
same,IC50,E. coli C(Tem4O-15); [3],369 nM
same,IC50,E. coli C(Tem4O-15); [4],653 nM
same,IC50 ratio N/R,E coli R(Tem1); 10 hours,N/R = 1388x
same,IC50 ratio N/R,E coli R(Tem1); 20 hours,N/R = 120x
same,IC50,E coli R(Tem1); [3],5.39 nM
same,IC50,E coli R(Tem1); [4],35.3 nM
same,IC50,"E. coli N [2]; read-out: IC50 10 hours, 10 hours, 37° C.",7480 nM
same,IC50,E. coli N [2]; [4],4240 nM
same,IC50 ratio (C/R or N/C),"E. coli C(Tem3 1-27); 10 hours, line of C (Tem31-27)",N/C = 6.7x
same,IC50 ratio (given C/R or N/R),"E. coli C(Tem3 1-27); 20 hours, line of C (Tem31-27)",N/R = 2.9x
same,IC50,E. coli C(Tem3 1-27); [3],1110 nM
same,IC50,E. coli C(Tem3 1-27); [4],1480 nM
same,MIC,P. aeruginosa; P. aeruginosa ATCC 21726,>64 µg/mL
same,MIC,P. aeruginosa; P. aeruginosa ATCC 29872,>64 µg/mL
same,MIC,Staphylococcus aureus; S. aureus ATCC 700260,0.0078 µg/mL
same,MIC,Staphylococcus aureus; S. aureus ATCC 700699,1 µg/mL
same,MIC,K. pneumoniae; K. pneumoniae ATCC 700721,4 µg/mL
